Source: US20210332161A1, “CHLORINATED DERIVATIVE OF HYALURONIC ACID, METHOD OF PREPARATION THEREOF, A COMPOSITION CONTAINING THE DERIVATIVE, AND USE THEREOF” (CONTIPRO A.S., priority 2018, published 2021)
“And” between values parts separate entries of the source, which are not always exact repeats. Equal values may be shown once.

What was measured:
[1] = Stability of hyaluronan chloramide on standing (DS by NMR); assay type: physicochemical; details: initial DS 85%
Experimental: 5 g of hyaluronan (Mw 2200 kg·mol^−1) were dissolved in 250 ml of distilled water. Subsequently, 2 ml of acetic acid were added and the solution was stirred at the temperature of 20° C. for 15 minutes. Then, a sodium salt of dichloroisocyanuric acid in the amount of 3.2 g (1 eq.) was added. Then, the mixture was stirred at a temperature of 20° C. for 48 hours. Subsequently, the mixture was precipitated by 2.5 litres of isopropanol and filtered. The solid portion was washed with 2 litres of isopropanol, whereupon it was vacuum dried for 20 hours. DS 85% (determined from NMR). The NMR solution (7 mg of the product in 0.7 ml of D2O) was measured after another 5 days of standing at 20° C. The DS value was determined as 84%. The solid portion in the form of powder was let stand at 20° C. for 100 days and after that the sample was dissolved in D2O. The DS value was determined as 84%.

VERO cellular substrate = assay: Plaque test groups without virus (examination of the cells / of toxicity); assay type: cell-based, Cercopithecus aethiops; details: 1% in PBS, no virus
Experimental: (§1) Number of repeats −5, tested substance prepared according to Example 19, virus subject to testing: CVB3 (Nancy) in the concentration of 3×10E7, 5 PFU/ml, VERO cellular substrate
(§2) After having been subject to 10^7-fold dilution in the volume of 1.5 ml, the virus was adsorbed on the cell substrate in Petri dishes for 30 minutes. The negative control contained PBS without viruses. Afterwards, the virus was removed by suction and the cells were interlayered by the tested substance (or by HA and PBS contained in the negative control materials), incubation at 37° C. and in the presence of 5% of CO2, for 5 hours. The cells were washed with PBS and covered by a layer of a medium containing EMEM supplemented with 5% of inactivated FBS and 0.75% of agarose. The incubation in an environment containing 5% of CO2 at 37° C. for 4 days. Subsequently, the medium was removed, the cells were stained by a crystal violet dye and the counts of plaques were determined. During the test, the antiviral activity was proportional to the reduction of the number of plaques.

CVB3 (Nancy) = assay: Testing of antiviral activity based on the plaque reduction; assay type: cell-based; details: for PFU on PD, Average: average of 5 repeats; for PFU on PD, Average / PFU on PD: VERO cells; for PFU on PD: single Petri dishes (5 repeats), 5 hours incubation, listed as HA chloramide
Experimental: as §1, §2

[2] = single Petri dishes (5 repeats)

Hyaluronan Chloramide [Example 16]
DS value of the NMR solution after standing ([1]; 7 mg of product in 0.7 ml D2O, another 5 days of standing at 20° C.): 84%
DS value of the solid powder after standing ([1]; powder let stand at 20° C. for 100 days, then dissolved in D2O): 84%

Hyaluronan Chloramide [Example 19]
PFU on PD, Average, Examination of the cells with HA (VERO cellular substrate; average of 5 repeats): 0 PFU
PFU on PD, Average, Examination of toxicity (VERO cellular substrate; average of 5 repeats): 0 PFU
PFU on PD, Examination of the cells with HA (VERO cellular substrate; [2]): 0 PFU
PFU on PD, Examination of toxicity (VERO cellular substrate; [2]): 0 PFU
PFU on PD, Average (CVB3 (Nancy); 0.1% in PBS): 7.8 PFU
PFU on PD (CVB3 (Nancy); 0.1% in PBS): 5 PFU and 7 PFU and 10 PFU and 8 PFU and 9 PFU
PFU on PD, Average (CVB3 (Nancy); 0.5% in PBS): 7.2 PFU
PFU on PD (CVB3 (Nancy); 0.5% in PBS): 8 PFU and 5 PFU and 7 PFU
PFU on PD, Average (CVB3 (Nancy); 1% in PBS): 2.6 PFU
inhibition of the viral growth compared to the standard with HA (CVB3 (Nancy); Tests 1, 2 and 3 (0.1, 0.5, 1% in PBS), more efficient with increasing concentration): inhibition of the viral growth

Hyaluronic acid [HA, reference compound]
PFU on PD, Average (CVB3 (Nancy); 1% in PBS): 10.4 PFU
